According to EPA's ToxRefDB 2:

How the values were obtained:
mouse [1] = conditions: Carcinogenicity, b6c3f1, Oral, Feed, dose end: 105 week, group: systemic
rat [2] = conditions: Subchronic oral toxicity in rodents, fischer, Feed, dose end: 13 week, group: systemic
rat [3] = conditions: Carcinogenicity, fischer, Oral, Feed, dose end: 105 week, group: systemic
mouse [4] = conditions: Subchronic oral toxicity in rodents, b6c3f1, Feed, dose end: 13 week, group: systemic
rat [5] = conditions: Subchronic oral toxicity in rodents, sprague dawley, Gavage/Intubation, dose end: 90 day, group: systemic
rabbit [6] = conditions: Prenatal developmental toxicity study, new zealand white, Oral, Gavage/Intubation, dose end: 18 GD, group: maternal
rat [7] = conditions: Prenatal developmental toxicity study, sprague dawley, Oral, Gavage/Intubation, dose end: 17 GD
rat [8] = conditions: Multigenerational reproductive toxicity study, sprague dawley, Oral, Gavage/Intubation, dose end: 2 generation
rat [9] = conditions: Subchronic oral toxicity in rodents, Sprague Dawley, Feed, dose end: 14 week, group: systemic
rat [10] = conditions: Combined chronic toxicity/carcinogenicity, Crl: CD (SD) IGS BR, Oral, Feed, dose end: 104 week, group: systemic
rat [11] = conditions: Developmental neurotoxicity study, sprague dawley, Oral, Gavage/Intubation, dose end: 72 PND, group: cannot be grouped
mouse [12] = conditions: Subchronic oral toxicity in rodents, cd1, Feed, dose end: 90 day, group: systemic
rat [13] = conditions: Multigenerational reproductive toxicity study, sprague dawley, Oral, Feed, dose end: 2 generation
rat [14] = conditions: Subchronic oral toxicity in rodents, sprague dawley, Feed, dose end: 90 day, group: systemic, systemic / in life observation / body weight / body weight gain + systemic / in life observation / food consumption / food consumption + …
dog = conditions: Chronic toxicity; beagle; Oral; Capsule; dose end: 12 month; group: systemic; systemic / clinical chemistry / alkaline phosphatase (alp/alk) / alkaline phosphatase (alp/alk) + systemic / organ weight / liver / absolute…
rat [15] = conditions: Combined chronic toxicity/carcinogenicity, sprague dawley, Oral, Feed, dose end: 104 week, group: systemic
mouse [16] = conditions: Carcinogenicity, cd1, Oral, Feed, dose end: 78 week, group: systemic
rabbit [17] = conditions: Prenatal developmental toxicity study, other, Oral, Gavage/Intubation, dose end: 27 GD
[18] = systemic / pathology microscopic / blood vessel / [other] + systemic / in life observation / clinical signs / [other] + systemic / in life …
[19] = systemic / in life observation / body weight / body weight + systemic / in life observation / body weight / body weight gain + systemic / …
[20] = systemic / in life observation / body weight / body weight gain
[21] = systemic / pathology microscopic / blood / leukemia mononuclear + systemic / pathology microscopic / esophagus / squamous cell papilloma + …
[22] = systemic / pathology microscopic / mammary gland / fibroadenoma + systemic / pathology microscopic / oral mucosa / squamous cell papilloma…
[23] = systemic / in life observation / food consumption / food consumption + systemic / organ weight / brain / absolute + systemic / organ weight…
[24] = systemic / pathology microscopic / stomach / acanthosis + systemic / pathology microscopic / stomach / hyperkeratosis + systemic / clinical …
[25] = systemic / in life observation / body weight / body weight + systemic / in life observation / clinical signs / soft stools + systemic / in …
[26] = group: developmental, systemic / in life observation / body weight / fetal weight
[27] = group: maternal, systemic / in life observation / body weight / body weight gain + systemic / in life observation / food consumption / food consumption
[28] = group: offspring, developmental / developmental landmark / eye opening / eye opening + developmental / developmental landmark / pinna unfolding / pinna …
[29] = group: parental, systemic / in life observation / body weight / body weight + systemic / in life observation / body weight / body weight gain + systemic / in…
[30] = group: reproductive, reproductive / offspring survival early / litter viability other / total litter loss
[31] = group: reproductive, reproductive / reproductive performance / gestational length / gestational length + reproductive / reproductive performance / implantations…
[32] = systemic / clinical chemistry / aspartate aminotransferase (ast/sgot) / aspartate aminotransferase (ast/sgot) + systemic / clinical …
[33] = systemic / in life observation / body weight / body weight + systemic / organ weight / liver / relative to body weight + systemic / …
[34] = systemic / in life observation / body weight / body weight + systemic / in life observation / body weight / body weight gain + systemic / in…
[35] = systemic / clinical chemistry / triglycerides / triglycerides
[36] = group: offspring, systemic / in life observation / body weight / offspring (pup) weight + systemic / in life observation / body weight / offspring (pup) …
[37] = systemic / pathology microscopic / mammary gland / adenoacanthoma
[38] = group: maternal, reproductive / reproductive performance / aborted / aborted + reproductive / reproductive performance / premature delivery / premature …

For `OCC(CO)(CBr)CBr` [2,2-Bis(bromomethyl)-1,3-propanediol], the LEL (mouse [1]; [18]) was 35 mg/kg/day, the NEL (mouse [1]; [18]) was < 35 mg/kg/day and the LOAEL (mouse [1]; systemic / pathology microscopic / lung / hyperplasia) was 80 mg/kg/day. The NOAEL (mouse [1]; systemic / pathology microscopic / lung / hyperplasia + systemic / pathology microscopic / blood vessel / [other] + systemic / pathology …) was 40 mg/kg/day, the LOAEL (rat [2]; [19]) was 400 mg/kg/day and the NOAEL (rat [2]; [19]) was 200 mg/kg/day. For the same compound, the LEL (rat [2]; [20]) was 100 mg/kg/day, the NEL (rat [2]; [20]) was < 100 mg/kg/day and the LOAEL (rat [3]; [21]) was > 430 mg/kg/day. For the same compound, the NOAEL (rat [3]; [21]) was ≥ 430 mg/kg/day, the LEL (rat [3]; [22]) was 100 mg/kg/day and the NEL (rat [3]; [22]) was < 100 mg/kg/day. The LOAEL (mouse [4]; [19]) was 500 mg/kg/day, the NOAEL (mouse [4]; [19]) was 200 mg/kg/day and the LEL (mouse [4]; [23]) was 100 mg/kg/day. For the same compound, the NEL (mouse [4]; [23]) was < 100 mg/kg/day.

With `C1CN(CN2CCOCC2)CCO1` [4,4-Methylenedimorpholine] the LOAEL (rat [5]; systemic / pathology microscopic / stomach / acanthosis + systemic / pathology microscopic / stomach / hyperkeratosis) was 50 mg/kg/day, the NEL (rat [5]; [24]) was 15 mg/kg/day and the NOAEL (rat [5]; [24]) was 15 mg/kg/day. The LEL (rat [5]; systemic / pathology microscopic / stomach / acanthosis + systemic / pathology microscopic / stomach / hyperkeratosis + systemic / in life …) was 50 mg/kg/day.

For `CC(C)n1cc2c3c(cccc31)[C@H]1C[C@@H](C(=O)NC3CCCCC3)CN(C)[C@@H]1C2` [Amesergide], the LOAEL (rabbit [6]; [25]) was > 15 mg/kg/day, the NEL (rabbit [6]; [25]) was 0.2 mg/kg/day and the NOAEL (rabbit [6]; [25]) was ≥ 15 mg/kg/day. For the same compound, the LEL (rabbit [6]; systemic / in life observation / food consumption / food consumption) was 2 mg/kg/day, the LEL (rat [7]; [26]) was 30 mg/kg/day and the LOAEL (rat [7]; [26]) was > 30 mg/kg/day. The NEL (rat [7]; [26]) was 10 mg/kg/day, the NOAEL (rat [7]; [26]) was ≥ 30 mg/kg/day and the LEL (rat [7]; [27]) was 30 mg/kg/day. The LOAEL (rat [7]; [27]) was > 30 mg/kg/day, the NEL (rat [7]; [27]) was 10 mg/kg/day and the NOAEL (rat [7]; [27]) was ≥ 30 mg/kg/day.

For `O=S(=O)([O-])C(F)(F)C(F)(F)C(F)(F)C(F)(F)C(F)(F)C(F)(F)C(F)(F)C(F)(F)F.[K+]` [PFOS-K], the LEL (rat [8]; [28]) was 1.6 mg/kg/day, the LOAEL (rat [8]; [28]) was > 3.2 mg/kg/day and the NEL (rat [8]; [28]) was 0.4 mg/kg/day. The NOAEL (rat [8]; [28]) was ≥ 3.2 mg/kg/day, the LOAEL (rat [8]; [29]) was > 3.2 mg/kg/day and the NEL (rat [8]; [29]) was 0.1 mg/kg/day. The NOAEL (rat [8]; [29]) was ≥ 3.2 mg/kg/day, the LEL (rat [8]; group: parental, systemic / in life observation / body weight / body weight gain) was 0.4 mg/kg/day and the LEL (rat [8]; [30]) was 1.6 mg/kg/day. The NEL (rat [8]; [30]) was 0.4 mg/kg/day, the LOAEL (rat [8]; [31]) was > 3.2 mg/kg/day and the NOAEL (rat [8]; [31]) was ≥ 3.2 mg/kg/day. The NEL (rat [9]; systemic / clinical chemistry / alanine aminotransferase (alt/sgpt) / alanine aminotransferase (alt/sgpt) + systemic / clinical chemistry / …) was 0.1 mg/kg/day, the LOAEL (rat [9]; [32]) was > 1 mg/kg/day and the NOAEL (rat [9]; [32]) was ≥ 1 mg/kg/day. The LEL (rat [9]; systemic / pathology microscopic / liver / hypertrophy + systemic / pathology microscopic / liver / vacuolization) was 0.25 mg/kg/day, the LOAEL (rat [10]; [33]) was > 1 mg/kg/day and the NOAEL (rat [10]; [33]) was ≥ 1 mg/kg/day. It also gave an NEL (rat [10]; systemic / pathology microscopic / liver / adenoma + systemic / in life observation / body weight / body weight + systemic / organ weight / …) of 0.025 mg/kg/day, an LEL (rat [10]; systemic / pathology microscopic / liver / degeneration + systemic / pathology microscopic / liver / eosinophilic focus) of 0.1 mg/kg/day and an LOAEL (rat [11]; systemic / in life observation / body weight / body weight) of 1 mg/kg/day. The LEL (rat [11]; [34]) was 1 mg/kg/day, the NEL (rat [11]; [34]) was 0.3 mg/kg/day and the NOAEL (rat [11]; [34]) was 0.3 mg/kg/day.

For `FC(F)(F)c1ccc(OCCCOc2c(Cl)cc(OCC=C(Cl)Cl)cc2Cl)nc1` [Pyridalyl], the LEL (mouse [12]; [35]) was 9.5 mg/kg/day, the NEL (mouse [12]; [35]) was < 9.5 mg/kg/day and the LOAEL (mouse [12]; [19]) was 378 mg/kg/day. For the same compound, the NOAEL (mouse [12]; [19]) was 81.7 mg/kg/day, the LOAEL (rat [13]; [36]) was 83.7 mg/kg/day and the NEL (rat [13]; [36]) was 3.4 mg/kg/day. The NOAEL (rat [13]; [36]) was 17 mg/kg/day, the LEL (rat [13]; group: offspring, systemic / organ weight / thymus / nos) was 17 mg/kg/day and the LOAEL (rat [13]; [29]) was 68.7 mg/kg/day. It also gave an NOAEL (rat [13]; [29]) of 13.8 mg/kg/day, an LEL (rat [13]; group: parental, systemic / organ weight / testes / absolute) of 17 mg/kg/day and an NEL (rat [13]; group: parental, systemic / organ weight / testes / absolute + systemic / in life observation / body weight / body weight + systemic / in life observation / …) of 3.4 mg/kg/day. The LEL (rat [14]) was 56 mg/kg/day, the LOAEL (rat [14]) was 56 mg/kg/day and the NEL (rat [14]) was 5.56 mg/kg/day. The NOAEL (rat [14]) was 5.56 mg/kg/day, the LEL (dog) was 80 mg/kg/day and the LOAEL (dog) was > 80 mg/kg/day. The NEL (dog) was 20 mg/kg/day, the NOAEL (dog) was ≥ 80 mg/kg/day and the LOAEL (rat [15]; [34]) was 17.1 mg/kg/day. For the same compound, the NOAEL (rat [15]; [19]) was 3.4 mg/kg/day, the LEL (rat [15]; [37]) was 1.23 mg/kg/day and the NEL (rat [15]; [37]) was < 1.23 mg/kg/day. The LEL (mouse [16]; systemic / hematology / mean corpuscular (cell) volume (mcv) / mean corpuscular (cell) volume (mcv)) was 5.04 mg/kg/day, the NEL (mouse [16]; systemic / hematology / mean corpuscular (cell) volume (mcv) / mean corpuscular (cell) volume (mcv) + systemic / hematology / lymphocyte / …) was 1.57 mg/kg/day and the LOAEL (mouse [16]; [34]) was 99 mg/kg/day. The NOAEL (mouse [16]; [34]) was 4.78 mg/kg/day, the LEL (rabbit [17]; [26]) was 150 mg/kg/day and the LOAEL (rabbit [17]; [26]) was 150 mg/kg/day. For the same compound, the NEL (rabbit [17]; [26]) was 50 mg/kg/day, the NOAEL (rabbit [17]; [26]) was 50 mg/kg/day and the LEL (rabbit [17]; [38]) was 150 mg/kg/day. For the same compound, the LOAEL (rabbit [17]; [38]) was 150 mg/kg/day, the NEL (rabbit [17]; [38]) was 50 mg/kg/day and the NOAEL (rabbit [17]; [38]) was 50 mg/kg/day.
